Data set [1] can be described thus: clinical. The conditions noted are these: human, in vivo, iv, Vdss.
Data set [2] is described as follows: clinical. The conditions noted are these: human, in vivo, iv, CL.
The nature of data set [3]: clinical. To be noted: human, in vivo, iv.
The nature of data set [4]: clinical. The conditions noted are these: human, in vivo, iv. This is another data set of the same source.
Data set [5] in a line: clinical. To be noted: human, in vivo, iv, t1/2.

25 compounds from ChEMBL document CHEMBL1614632, “Trend analysis of a database of intravenous pharmacokinetic parameters in humans for 670 drug compounds” (Drug Metab Dispos, 2008) can be followed below.

For `COc1ccc2c(c1)c(CC(=O)O)c(C)n2C(=O)c1ccc(Cl)cc1` [INDOMETHACIN], the Vd (in general, a proportionality between amount in the body and measured concentration, not a real space) in the data set “clinical [1]” was 0.096 L/kg. Further, the clearance – broadly, the volume of plasma or blood freed of the substance per unit of time – in “clinical [2]” stood at 1.3 mL/min/kg. Besides, the fraction unbound (as a rule, the share of the substance not bound to proteins or other matrix) in “clinical [3]” amounted to 0.01. The MRT (in general, a mean duration of stay, worked out from the concentration-time curve) in “clinical [4]” came out at 1.2 h. Further, in “clinical [5]”, the half-life – broadly, the time needed for the level to fall by half in the phase considered – is 1.4 h.

Turning to `O=C(NC1CCN(CCc2c[nH]c3ccccc23)CC1)c1ccccc1` [INDORAMIN], the Vd in “clinical [1]” stood at 4.9 L/kg. This compound also gave a clearance in the data set “clinical [2]” of 20 mL/min/kg. The fraction unbound in “clinical [3]” was found to be 0.15. The same compound came in with an MRT in “clinical [4]” of 4.1 h. The compound also showed a half-life in the data set “clinical [5]” of 4.3 h.

In “clinical [1]”, `CC(=O)N(CC(O)CO)c1c(I)c(C(=O)NCC(O)CO)c(I)c(C(=O)NCC(O)CO)c1I` (stereo not given) [IOHEXOL] gave a Vd of 0.16 L/kg. Moreover, the clearance in “clinical [2]” is 2 mL/min/kg. The same compound came in with an unbound share (fraction unbound) in “clinical [3]” of 1. This compound yielded an MRT in “clinical [4]” of 1.3 h. Further, the half-life in the data set “clinical [5]” was 1.5 h.

In the data set “clinical [1]”, `C[C@H](O)C(=O)Nc1c(I)c(C(=O)NC(CO)CO)c(I)c(C(=O)NC(CO)CO)c1I` [IOPAMIDOL] came in with a distribution volume (Vd) of 0.28 L/kg. The clearance in the data set “clinical [2]” worked out at 1.9 mL/min/kg. In addition, the fraction unbound in the data set “clinical [3]” worked out at 1. Also, in the data set “clinical [4]”, the MRT is 2.5 h. The half-life in “clinical [5]” is 2.1 h.

`COCC(=O)Nc1c(I)c(C(=O)NCC(O)CO)c(I)c(C(=O)N(C)CC(O)CO)c1I` (stereo not given) [IOPROMIDE] gave a Vd in “clinical [1]” of 0.22 L/kg. In “clinical [2]”, this compound showed a clearance of 1.4 mL/min/kg. Also, the fraction unbound in “clinical [3]” is 0.99. In addition, the MRT in the data set “clinical [4]” is 2.6 h. This compound had a half-life in the data set “clinical [5]” of 2.6 h.

On to `CCCCC1=NC2(CCCC2)C(=O)N1Cc1ccc(-c2ccccc2-c2nnn[nH]2)cc1` [IRBESARTAN], for which the Vd in the data set “clinical [1]” turned out to be 0.94 L/kg. The clearance in “clinical [2]” was found to be 2.3 mL/min/kg. Moreover, the fraction unbound in the data set “clinical [3]” amounted to 0.1. This compound also had an MRT in “clinical [4]” of 6.8 h. The compound also gave a half-life in “clinical [5]” of 14 h.

As for `CC(C)NCC(O)c1ccc(O)c(O)c1` (stereo not given) [ISOPROTERENOL], the Vd in “clinical [1]” was determined as 1.5 L/kg. In “clinical [2]”, the clearance was determined as 56 mL/min/kg. The compound also gave a fraction unbound in “clinical [3]” of 0.71. The same compound registered an MRT in the data set “clinical [4]” of 0.43 h. In “clinical [5]”, this compound showed a half-life of 0.41 h.

In “clinical [1]”, `COC(=O)C1=C(C)NC(C)=C(C(=O)OC(C)C)C1c1cccc2nonc12` (stereo not given) [ISRADIPINE] gave a Vd of 1.5 L/kg. This compound also registered a clearance in “clinical [2]” of 26 mL/min/kg. The compound also had a fraction unbound in “clinical [3]” of 0.04. Besides, the MRT in the data set “clinical [4]” was 1 h. Besides, the half-life in the data set “clinical [5]” was 3.3 h.

In the data set “clinical [1]”, `CNC1(c2ccccc2Cl)CCCCC1=O` (stereo not given) [KETAMINE] displayed a Vd of 2.9 L/kg. In the data set “clinical [2]”, this compound showed a clearance of 19 mL/min/kg. In the data set “clinical [3]”, this compound registered a fraction unbound of 0.47. Moreover, in the data set “clinical [4]”, the MRT amounted to 2.5 h. Moreover, the half-life in “clinical [5]” was 2.8 h.

In turn, `CCNC(=O)[C@@H]1CCCN1C(=O)[C@H](CCCNC(=N)N)NC(=O)[C@H](CC(C)C)NC(=O)[C@@H](CC(C)C)NC(=O)[C@H](Cc1ccc(O)cc1)NC(=O)[C@H](CO)NC(=O)[C@H](Cc1c[nH]c2ccccc12)NC(=O)[C@H](Cc1c[nH]cn1)NC(=O)[C@@H]1CCC(=O)N1` [LEUPROLIDE] registered a Vd in the data set “clinical [1]” of 0.38 L/kg. The compound further had a clearance in “clinical [2]” of 2 mL/min/kg. Moreover, in the data set “clinical [3]”, the fraction unbound turned out to be 0.54. Moreover, the mean residence time MRT in the data set “clinical [4]” worked out at 3.1 h. In the data set “clinical [5]”, this compound showed a half-life of 2.9 h.

`C#C[C@]1(O)CC[C@H]2[C@@H]3CCC4=CC(=O)CC[C@@H]4[C@H]3CC[C@@]21CC` [LEVONORGESTREL] came in with a Vd in “clinical [1]” of 1.5 L/kg. Besides, in the data set “clinical [2]”, the clearance was determined as 1.8 mL/min/kg. Also, the fraction unbound in the data set “clinical [3]” is 0.025. This compound yielded a mean residence time MRT in the data set “clinical [4]” of 14 h. In addition, the half-life in the data set “clinical [5]” is 9.4 h.

In the data set “clinical [1]”, `C[C@@H]1CC(=O)NN=C1c1ccc(NN=C(C#N)C#N)cc1` [LEVOSIMENDAN] registered a distribution volume (Vd) of 0.24 L/kg. In “clinical [2]”, the clearance came to 3.8 mL/min/kg. This compound also had a fraction unbound in “clinical [3]” of 0.02. In the data set “clinical [4]”, this compound showed an MRT of 1.1 h. Also, the half-life in “clinical [5]” was 1.1 h.

`CCC[C@@H]1C[C@@H](C(=O)N[C@@H]([C@H]2O[C@H](SC)[C@H](O)[C@@H](O)[C@H]2O)[C@@H](C)O)N(C)C1` [LINCOMYCIN] displayed a Vd in “clinical [1]” of 1 L/kg. Besides, the clearance in the data set “clinical [2]” came to 2.1 mL/min/kg. Also, the fraction unbound in “clinical [3]” amounted to 0.14. For the same compound, in the data set “clinical [4]”, the mean residence time (MRT) came to 7.5 h. The compound also had a half-life in the data set “clinical [5]” of 5.6 h.

The compound `O=C([O-])[O-].[Li+].[Li+]` [LITHIUM CARBONATE] displayed a Vd in “clinical [1]” of 0.62 L/kg. The clearance in “clinical [2]” turned out to be 1.3 mL/min/kg. The same compound displayed a fraction unbound in the data set “clinical [3]” of 1. In addition, the MRT in the data set “clinical [4]” is 7.9 h. Moreover, the half-life in the data set “clinical [5]” is 7.8 h.

In turn, `CNCCCC12CCC(c3ccccc31)c1ccccc12` [MAPROTILINE] gave a Vd in the data set “clinical [1]” of 45 L/kg. For the same compound, the clearance in “clinical [2]” came to 14 mL/min/kg. The unbound share (fraction unbound) in the data set “clinical [3]” stood at 0.11. The same compound displayed an MRT in the data set “clinical [4]” of 54 h. In “clinical [5]”, this compound showed a half-life of 51 h.

In turn, `CCOC(=O)C1(c2ccccc2)CCN(C)CC1` [MEPERIDINE] came in with a Vd in “clinical [1]” of 2.3 L/kg. The same compound came in with a clearance in the data set “clinical [2]” of 4.9 mL/min/kg. The same compound had a fraction unbound in the data set “clinical [3]” of 0.42. This compound had an MRT in the data set “clinical [4]” of 6.4 h. In the data set “clinical [5]”, this compound gave a half-life of 7.9 h.

In turn, `Cc1cccc(C)c1NC(=O)C1CCCCN1C` (stereo not given) [MEPIVACAINE] had a volume of distribution (Vd) in “clinical [1]” of 0.95 L/kg. In the data set “clinical [2]”, this compound yielded a clearance of 6.8 mL/min/kg. Further, the fraction unbound in the data set “clinical [3]” stood at 0.3. The compound further yielded an MRT in the data set “clinical [4]” of 2.5 h. Moreover, in “clinical [5]”, the half-life is 2 h.

On to `CCCC(C)(COC(N)=O)COC(N)=O` [MEPROBAMATE], for which the Vd in “clinical [1]” worked out at 0.7 L/kg. The clearance in “clinical [2]” was 0.6 mL/min/kg. In the data set “clinical [3]”, this compound came in with a free fraction (fraction unbound) of 1. The compound further yielded a mean residence time (MRT) in the data set “clinical [4]” of 19 h. The compound further showed a half-life in “clinical [5]” of 14 h.

`CCC1(c2cccc(O)c2)CCCCN(C)C1` (stereo not given) [MEPTAZINOL] displayed a Vd in the data set “clinical [1]” of 3.3 L/kg. Besides, in the data set “clinical [2]”, the clearance was determined as 28 mL/min/kg. Besides, the fraction unbound in the data set “clinical [3]” amounted to 0.73. The same compound returned an MRT in the data set “clinical [4]” of 2 h. In the data set “clinical [5]”, this compound gave a half-life of 1.7 h.

Regarding `Nc1ccc(O)c(C(=O)O)c1` [MESALAMINE], the Vd in the data set “clinical [1]” came out at 0.33 L/kg. The same compound returned a clearance in “clinical [2]” of 9.3 mL/min/kg. This compound also showed a fraction unbound in “clinical [3]” of 0.39. The compound also displayed an MRT in the data set “clinical [4]” of 0.59 h. For the same compound, in “clinical [5]”, the half-life is 0.61 h.

As for `CN[C@@H](C)Cc1ccccc1` [METHAMPHETAMINE], the Vd in “clinical [1]” was 4.3 L/kg. In the data set “clinical [2]”, this compound returned a clearance of 4.4 mL/min/kg. Further, the fraction unbound in “clinical [3]” was 0.85. In the data set “clinical [4]”, the MRT turned out to be 16 h. The same compound gave a half-life in “clinical [5]” of 12 h.

Compound `COc1cccc(OC)c1C(=O)N[C@@H]1C(=O)N2[C@@H]1SC(C)(C)[C@@H]2C(=O)O` [METHICILLIN] came in with a Vd in the data set “clinical [1]” of 0.32 L/kg. In the data set “clinical [2]”, this compound gave a clearance of 6.6 mL/min/kg. In “clinical [3]”, this compound had a fraction unbound of 0.43. The compound further yielded a mean residence time (MRT) in the data set “clinical [4]” of 0.8 h. In addition, the half-life in the data set “clinical [5]” was 0.64 h.

In turn, `C=CCC1(C(C)C#CCC)C(=O)N=C(O)N(C)C1=O` (stereo not given) [METHOHEXITAL] had a Vd in “clinical [1]” of 1.1 L/kg. Besides, in the data set “clinical [2]”, the clearance came to 12 mL/min/kg. The same compound had a fraction unbound in “clinical [3]” of 0.27. Also, in the data set “clinical [4]”, the MRT came out at 1.5 h. Besides, the half-life in “clinical [5]” is 1.6 h.

As to `COc1ccc2cc1Oc1cc3c(cc1OC)CC[N+](C)(C)[C@H]3Cc1ccc(cc1)Oc1c(OC)c(OC)cc3c1[C@@H](C2)[N+](C)(C)CC3.[I-].[I-]` [METOCURINE IODIDE], the Vd in “clinical [1]” stood at 0.4 L/kg. This compound gave a clearance in the data set “clinical [2]” of 1.2 mL/min/kg. The compound also displayed an unbound share (fraction unbound) in “clinical [3]” of 0.65. Further, the mean residence time (MRT) in “clinical [4]” was determined as 5.6 h. The half-life in “clinical [5]” is 5.1 h.

`CC(=O)Nc1c(I)c(C(=O)O)c(I)c(N(C)C(C)=O)c1I` [METRIZOIC ACID] had a distribution volume (Vd) in the data set “clinical [1]” of 0.17 L/kg. The compound further yielded a clearance in the data set “clinical [2]” of 2.7 mL/min/kg. In addition, the fraction unbound in the data set “clinical [3]” amounted to 1. The compound also showed an MRT in “clinical [4]” of 1 h. In “clinical [5]”, this compound showed a half-life of 1.3 h.
